According to patent US8501992B2, “Hydroxyphenyl sulfonamides as antiapoptotic bcl inhibitors” (Bristol-Myers Squibb Company, priority 2008, dated 2013):

Tests used:
Assay type in all cases: binding
Bcl-2 = biological target: T1, Bcl-2 (Homo sapiens, UniProt P10415); experiment: Bcl2/Bim fluorescence polarization assay (FPA); conditions: BIM BH3 peptide 5 nM, Bcl-2 11 nM, Ki calculated from FPA data
T1 construct: without their C-terminal transmembrane domain; GST; made in house
Source text: (§1) Compounds were profiled for their ability to disrupt in vitro binding interactions in fluorescence polarization assays (FPAs) using synthetic fluorochrome-labeled Bcl homology 3 (BH3) peptides derived from BIM [(FAM)-Ahx-[…]-NH2 (SEQ ID NO: 1) (GenBank Accession No. O43521)] or BAK [Ac-GQVGRQLAIIGE-LYS(FAM)-INR-NH2 (SEQ ID NO:2) (GenBank Accession No. Q16611) amino acid sequences and four bacterial recombinant proteins [Bcl-b (GenBank Accession No. Q9HD36), Bcl-2 (GenBank Accession No. P10415), Bcl-Xl (GenBank Accession No. Q07817), Mcl-1 (GenBank Accession No. Q07820)] without their C-terminal transmembrane domain. Proteins were purified from bacterial lysates using their glutathione S-transferase (GST)-tag (Bcl-b, Bcl-2, Mcl-1) or His6-tag (Bcl-Xl) and following one-step affinity chromatography procedures. Dissociation constants (Kd) for peptide binding protein were determined by fluorescence polarization in FPAs measuring BIM BH3 peptide binding Bcl-b, Mcl-1 or Bcl-2 protein or BAK BH3 peptide binding Bcl-Xl protein. The Kd values were generated by fitting the experimental data using a sigmoidal dose-response nonlinear regression model.
(§2) Compound inhibitory concentration values, IC50 (50% reduction in fluorescence polarization), were determined using fluorochrome-labeled BH3 peptides and recombinant Bcl proteins in fluorescence polarization assays (FPAs). Compounds diluted in DMSO (0.5 ul) were transferred (in duplicate) to individual wells of a 384-well plate. The fluorochrome-labeled peptide was added followed by recombinant protein addition. Each binding FPA reaction (50 ul) contained BIM BH3 peptide (5 nM) or BAK BH3 peptide (1.5 nM) and Bcl-b (40 nM), Mcl-1 (28 nM), Bcl-2 (11 nM) or Bcl-Xl. (5 nM) protein suspended in assay buffer [20 mM sodium phosphate, pH 7.4, 1 mM EDTA, 50 mM NaCl., 0.05% Pluronic F68]. Reaction mixtures were incubated at ambient temperature for 60 minutes prior to measuring polarization (mP) using an Analyst (LJL, Molecular Devices, Sunnyvale, Calif.) programmed to detect an emission wavelength of 530 nm after excitation (excitation wavelength=485 nm).
(§3) Competitive compound inhibition constants (Ki) were calculated using FPA experimental data and a mathematical equation, Ki=[I]50/([L]50/Kd+[P]0/Kd+1), where [I]50 denotes free inhibitor concentration at 50% inhibition, [L]50 is free labeled ligand concentration at 50% inhibition, [P]0 is free protein concentration at 0% inhibition, and Kd is the dissociation constant of the protein-ligand complex.

Mcl-1 = biological target: T2, Mcl-1 (Homo sapiens, UniProt Q07820); experiment: Mcl-1/Bim fluorescence polarization assay (FPA); conditions: BIM BH3 peptide 5 nM, Mcl-1 28 nM, Ki calculated from FPA data
T2 construct: without their C-terminal transmembrane domain; GST; made in house
Source text: as §1, §2, §3

Bcl-b = biological target: T3, Bcl-b (Homo sapiens, UniProt Q9HD36); experiment: Bclb/Bim fluorescence polarization assay (FPA); conditions: BIM BH3 peptide 5 nM, Bcl-b 40 nM, Ki calculated from FPA data
T3 construct: without their C-terminal transmembrane domain; GST; made in house
T3 sequence (Q9HD36 1-182 limits assumed): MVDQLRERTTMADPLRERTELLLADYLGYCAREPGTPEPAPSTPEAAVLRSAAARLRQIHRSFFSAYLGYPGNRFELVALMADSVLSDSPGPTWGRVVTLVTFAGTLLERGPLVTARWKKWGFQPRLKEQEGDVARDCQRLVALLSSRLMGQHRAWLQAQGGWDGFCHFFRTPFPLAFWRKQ
Source text: as §1, §2, §3

T2 sequence (Q07820 1-327 limits assumed): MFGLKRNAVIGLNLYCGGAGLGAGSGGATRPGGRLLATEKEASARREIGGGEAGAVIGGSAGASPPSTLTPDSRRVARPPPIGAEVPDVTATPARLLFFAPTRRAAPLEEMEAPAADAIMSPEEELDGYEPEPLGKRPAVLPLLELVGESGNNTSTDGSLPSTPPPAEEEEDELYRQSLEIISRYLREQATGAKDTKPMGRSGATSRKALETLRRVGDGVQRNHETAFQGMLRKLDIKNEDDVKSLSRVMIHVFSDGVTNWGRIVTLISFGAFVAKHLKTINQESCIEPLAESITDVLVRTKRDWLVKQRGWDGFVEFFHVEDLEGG
T1 sequence (P10415 1-211 limits assumed): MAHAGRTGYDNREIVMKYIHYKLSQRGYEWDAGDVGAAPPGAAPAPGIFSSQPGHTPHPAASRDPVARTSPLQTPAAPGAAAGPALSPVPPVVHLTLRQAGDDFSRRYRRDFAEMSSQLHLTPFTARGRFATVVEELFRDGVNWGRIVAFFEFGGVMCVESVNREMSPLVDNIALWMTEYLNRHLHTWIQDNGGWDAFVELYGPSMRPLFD

`COC(=O)c1cc(Cl)cc(S(=O)(=O)N(Cc2ccc(F)cc2)Cc2cccc(-c3ccc(Cl)cc3)c2)c1O` [Example 226, Methyl 5-chloro-3-(N-((4′-chloro-biphenyl-3-yl)methyl)-N-(4-fluorobenzyl)sulfamoyl)-2-hydroxybenzoate] was tested. Which Ki (Bcl-2) did it give?
The Ki was 3730 nM.

What about the Ki (Mcl-1) of the same compound?
Its Ki is 2280 nM.

What about the Ki (Bcl-b) of the same compound?
The Ki was 500 nM.

Which Ki (Bcl-2) does the source give for `O=S(=O)(c1cc(Cl)cc(Cl)c1O)N(Cc1ccc(F)cc1)Cc1cccc(-c2ccc(Cl)cc2)c1` [Example 232, 3,5-Dichloro-N-((4′-chlorobiphenyl-3-yl)methyl)-N-(4-fluorobenzyl)-2-hydroxybenzenesulfonamide] here?
The Ki was 90 nM.

And the Ki (Mcl-1)?
Its Ki is 50 nM.

What about the Ki (Bcl-b) of the same compound?
The Ki was 90 nM.

Which results are given for `CCCCCCCCc1ccc(CN(Cc2cccc(Oc3ccc(F)cc3)c2)S(=O)(=O)c2cc(Cl)cc(Cl)c2O)cc1` [Example 235, 3,5-Dichloro-N-(3-(4-fluorophenoxy)benzyl)-2-hydroxy-N-(4-octylbenzyl)benzenesulfonamide]?
Ki (Bcl-2): 80 nM; Ki (Mcl-1): 40 nM; Ki (Bcl-b): 60 nM

Which results are given for `COc1c(CN(Cc2ccc(F)cc2)S(=O)(=O)c2cc(Cl)cc(Cl)c2O)cccc1-c1ccc(Cl)cc1` [Example 240, 3,5-Dichloro-N-((4′-chloro-2-methoxybiphenyl-3-yl)methyl)-N-(4-fluorobenzyl)-2-hydroxybenzenesulfonamide]?
Ki (Bcl-2): 120 nM; Ki (Mcl-1): 470 nM; Ki (Bcl-b): 110 nM

Which Ki (Bcl-2) does the source give for `CCCCc1ccc(-c2cccc(CN(Cc3ccc(F)cc3)S(=O)(=O)c3cc(Cl)cc(Cl)c3O)c2)cc1` [Example 256, N-((4′-Butylbiphenyl-3-yl)methyl)-3,5-dichloro-N-(4-fluorobenzyl)-2-hydroxybenzenesulfonamide] here?
The Ki was 130 nM.

And the Ki (Mcl-1)?
Its Ki is 2120 nM.

And the Ki (Bcl-b)?
Its Ki is 140 nM.

`Cc1cccc(CN(Cc2ccc(F)cc2)S(=O)(=O)c2cc(Cl)cc(Cl)c2O)c1` [Example 266, 3,5-Dichloro-N-(4-fluorobenzyl)-2-hydroxy-N-(3-methylbenzyl)benzenesulfonamide] was tested. Which Ki (Bcl-2) did it give?
Its Ki is 720 nM.

And the Ki (Mcl-1)?
The Ki was 1680 nM.

And the Ki (Bcl-b)?
Its Ki is 300 nM.

How did the Ki (Bcl-2) turn out when `O=S(=O)(c1cc(Cl)cc(Cl)c1O)N(Cc1ccc(Cl)cc1)Cc1cccc(-c2ccc(Cl)cc2)n1` [Example 274, 3,5-Dichloro-N-(4-chlorobenzyl)-N-((6-(4-chlorophenyl)pyridin-2-yl)methyl)-2-hydroxybenzenesulfonamide] was run?
Its Ki is 520 nM.

And the Ki (Mcl-1)?
The Ki was 1570 nM.

And the Ki (Bcl-b)?
The Ki was 450 nM.
